Measured values reported in patent publication US5441974A, “Phenyl amidines lactones useful as platelet aggregation inhibitors” (G. D. Searle & Co., priority 1994, dated 1995).
Structures can show the parent of a compound that is named as a salt.

System: platelet aggregation
Assay: In-Vitro Platelet Aggregation in PRP (ADP-induced)
Format: cell-based
Conditions: dog platelet-rich plasma, ADP 50 μm final; for IC50: 1 min preincubation at 37° C.; for % Inhibition: Test Concentration 1 × 10^-5
Method: Compounds of the invention were evaluated by an in vivo assay to determine compound activity as an inhibitors of platelet aggregation.
Healthy male or female dogs were fasted for 8 hours prior to drawing blood; then 30 mL whole blood was collected using a butterfly needle and 30 cc plastic syringe with 3 ml of 0.129M buffered sodium citrate (3.8%). The syringe was rotated carefully as blood was drawn to mix the citrate. Platelet-rich plasma (PRP) was prepared by centrifugation at 975×g for 3.17 minutes at room temperature, allowing the centrifuge to coast to a stop without braking. The PRP was removed from the blood with a plastic pipette and placed in a plastic capped, 50 ml Corning conical sterile centrifuge tube which was held at room temperature. Platelet poor plasma (PPP) was prepared by centrifuging the remaining blood at 2000×g for 15 minutes at room temperature allowing the centrifuge to coast to a stop without braking. The PRP was adjusted with PPP to a count of 2-3×10^8 platelets per ml. 400 μL of the PRP preparation and 50 μL of the compound to be tested or saline were preincubated for 1 minute at 37° C. in a BioData aggregometer (BioData, Horsham, Pa.). 50 μL of adenosine 5'diphosphate (ADP) (50 μm final concentration) was added to the cuvettes and the aggregation was monitored for 1 minute. All compounds are tested in duplicate. Results are calculated as follows:
Percent of control=[(maximal OD minus initial OD of compound) divided by (maximal OD minus initial OD of control saline)]×100. The % inhibition=100 - (percent of control).

[1] = Canis lupus familiaris, Platelet

SMILES	IC50 [1] [nM]	% Inhibition [%]	IC50 [nM]
COc1ccc2c(c1)OC(=O)CC2NC(=O)CCCCc1ccc(C(=N)N)cc1 (racemic) [Example 3, (±)-4-(Aminoiminomethyl)-N-(3,4-dihydro-7-methoxy-2-oxo-2H-1-benzopyran-4-yl)benzenepentanamide]	1100	96	
N=C(N)c1ccc(CCCCC(=O)N[C@H]2CC(=O)OC2c2nccs2)cc1 (single isomer, unassigned; diastereoisomer a) [Example 7, 4-(aminoiminomethyl)-N-[tetrahydro-5-oxo-2-(2-thiazolyl)-3S-furanyl]benzene pentanamide, bis(trifluoroacetate) (diastereoisomer A)]			> 10000
N=C(N)c1ccc(CCCCC(=O)N[C@H]2CC(=O)OC2c2ccccc2)cc1 (single isomer, unassigned; diastereoisomer b) [Example 5, 4-(aminoiminomethyl)-N-(tetrahydro-5-oxo-2-phenyl-3S-furanyl)benzenepentanamide, trifluoroacetate (diastereoisomer B)]			5100
N=C(N)c1ccc(CCCCC(=O)N[C@H]2CC(=O)OC2c2ccccc2)cc1 (single isomer, unassigned; diastereomer a) [Example 4]		100	680
N=C(N)c1ccc(CCCCC(=O)N[C@@H]2COC(=O)C2)cc1 [Example 1, 4-(Aminoiminomethyl)-N-(5-oxo-3S-furanyl)benzenepentanamide]		44	
N=C(N)c1ccc(CCCCC(=O)NC2CC(=O)Oc3ccccc32)cc1 (racemic) [Example 2, (±)-4-(Aminoiminomethyl)-N-(3,4-dihydro-2-oxo-2H-1-benzopyran-4-yl) benzenepentanamide]	2000		
N=C(N)c1ccc(CCCCC(=O)NC2CC(=O)OC2c2nccs2)cc1 (single isomer, unassigned; diastereoisomer b) [Example 8, 4-(aminoiminomethyl)-N-[tetrahydro-5-oxo-2-(2-thiazolyl)-3S-furanyl]benzene pentanamide, trifluoroacetate. (diastereoisomer B)]			> 10000
